Laboratory results reported in article PMC3871618 (PLoS ONE, 2013).
Each block holds one molecule with its values, some of them ahead of it.

How the values were obtained:
HepG2 cells = assay: XTT cytotoxicity, CDKi + DNR combination (Chou-Talalay); format: cell-based, human; details: HepG2, 72 h
Experimental: (§1) 1×10^4 MDCKII-ABCB1, 1×10^4 MDCKII parent, 2×10^4 HCT-8, or 2×10^4 HepG2 cells were grown in 96-well culture plates and incubated for 24 h. Individual CDKi diluted with growth medium were added to the exponentially growing cells and the resulting mixtures were incubated for 72 h at 37°C, 5% CO2. Cytotoxicity was then assessed using the XTT assay as follows: cells were incubated with 0.167 mg/mL XTT and 4 µM PMS in Opti-MEM for 2 h. The absorbance of the soluble formazan released was measured at 470 nm on a microplate reader (Tecan, Männedorf, Switzerland).
(§2) The combination index (CI) method of Chou-Talalay, based on the median-effect equation, was used to calculate combined drug effects. This approach offers quantitative definitions for additive, synergistic and antagonistic effects (CI values of 0.9–1.1, <0.9, and >1.1, respectively). Combination experiments were performed in a constant-ratio experimental design as recommended for the most efficient data analysis, and the generated data were used to quantify dose-reduction indices (DRI) for pairs of the tested drugs. DRI represents the fold-change of a focal effect when individual agents are used simultaneously relative to their separate effects, and their activity is synergistic if DRI > 1. […] The data acquired from these drug combination experiments were analyzed using CompuSyn ver. 3.0.1 software (ComboSyn Inc., Paramus, NJ, USA).

HCT-8 cells = assay: as above; details: HCT-8, 72 h
Experimental: as §1, §2

MDCKII parent cells = assay: as above; format: cell-based; details: 72 h
Experimental: as §1, §2

ABCB1 [1] = biological target: T1, ABCB1 (Homo sapiens, UniProt P08183); assay: ABCB1-ATPase activation assay (baseline), Sf9 membranes; format: biochemical; parameters: purchased Solvo Biotechnology (Szeged, Hungary); host or cells: Sf9 insect cell membranes; details: for ABCB1 substrate classification: from ATPase activity in Sf9 membranes overexpressing human ABCB1
T1 sequence (P08183 whole entry): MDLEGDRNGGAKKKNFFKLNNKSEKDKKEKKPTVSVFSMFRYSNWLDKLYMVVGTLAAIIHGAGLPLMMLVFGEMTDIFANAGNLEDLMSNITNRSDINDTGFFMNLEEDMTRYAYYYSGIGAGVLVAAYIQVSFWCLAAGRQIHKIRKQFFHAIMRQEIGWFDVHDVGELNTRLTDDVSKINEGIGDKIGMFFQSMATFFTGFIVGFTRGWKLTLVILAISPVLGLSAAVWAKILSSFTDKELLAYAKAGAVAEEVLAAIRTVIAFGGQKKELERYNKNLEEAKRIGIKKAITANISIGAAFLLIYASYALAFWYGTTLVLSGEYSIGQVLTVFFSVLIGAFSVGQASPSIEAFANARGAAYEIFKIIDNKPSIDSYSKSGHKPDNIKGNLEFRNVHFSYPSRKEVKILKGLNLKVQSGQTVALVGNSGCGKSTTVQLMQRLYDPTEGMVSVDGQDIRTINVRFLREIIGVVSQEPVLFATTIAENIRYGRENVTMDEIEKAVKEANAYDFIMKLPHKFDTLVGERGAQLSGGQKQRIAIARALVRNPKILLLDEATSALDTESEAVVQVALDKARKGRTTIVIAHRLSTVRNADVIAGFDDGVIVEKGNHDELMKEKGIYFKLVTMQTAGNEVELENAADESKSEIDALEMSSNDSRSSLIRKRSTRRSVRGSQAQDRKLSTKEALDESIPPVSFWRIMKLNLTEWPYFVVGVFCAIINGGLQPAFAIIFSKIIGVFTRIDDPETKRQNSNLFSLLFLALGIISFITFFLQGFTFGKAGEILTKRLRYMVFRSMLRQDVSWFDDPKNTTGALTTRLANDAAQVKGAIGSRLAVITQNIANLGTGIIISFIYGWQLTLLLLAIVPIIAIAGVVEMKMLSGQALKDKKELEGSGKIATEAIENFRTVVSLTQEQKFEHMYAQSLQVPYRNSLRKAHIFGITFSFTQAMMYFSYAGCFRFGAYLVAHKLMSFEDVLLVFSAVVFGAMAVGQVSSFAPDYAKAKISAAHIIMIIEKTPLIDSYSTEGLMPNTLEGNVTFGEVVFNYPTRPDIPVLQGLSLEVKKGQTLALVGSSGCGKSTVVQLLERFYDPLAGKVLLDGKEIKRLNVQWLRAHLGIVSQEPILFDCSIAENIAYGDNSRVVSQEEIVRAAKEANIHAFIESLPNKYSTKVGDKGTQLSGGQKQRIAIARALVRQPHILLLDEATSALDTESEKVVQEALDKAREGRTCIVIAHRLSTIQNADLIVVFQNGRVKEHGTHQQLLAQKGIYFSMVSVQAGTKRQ
Experimental: (§3) The drug efflux function of ABCB1 is linked to hydrolysis of ATP by ATPase, which is stimulated in the presence of ABCB1 substrates. In the activation assay, transported substrates can stimulate baseline vanadate-sensitive ATPase activity, whereas in the inhibition assay, which is carried out in the presence of a known activator of the transporter, inhibitors may reduce the maximal vanadate-sensitive ATPase activity. ATPase activity was measured by assessing the amount of phosphate liberated from ATP by the ABCB1 transporter using the […] ATPase kit for ABCB1 according to the manufacturer’s instructions. For this purpose, Sf9 cell membranes (4 µg protein per well) were mixed with each of the test compounds (singly) in solutions with concentrations ranging from 140 nM to 300 µM, then incubated at 37°C for 10 min in the presence or absence of 1.2 mM sodium orthovanadate. The reaction was started by adding 10 mM ATP solution (magnesium salt) to the reaction mixture, stopped 10 min later, and the absorbance at 590 nm was measured after a further 30 min incubation (GeniosPlus apparatus; Tecan, Männedorf, Switzerland). The ATPase activity in each sample was determined as the difference in liberated amounts of phosphate measured in the presence and absence of 1.2 mM sodium orthovanadate. Phosphate standards were prepared in each plate and verapamil served as a positive control for ABCB1 stimulation. The results are expressed as vanadate-sensitive ATPase activities.

ABCB1 [2] = biological target: T1, ABCB1; assay: HOE (Hoechst 33342) accumulation in MDCKII-ABCB1 cells; format: cell-based; parameters: expressed in transfected cells; host or cells: MDCKII (canine kidney) cells transduced with human ABCB1, from Prof; Piet Borst and Dr. Alfred Schinkel (The Netherlands Cancer Institute); details: human, probe Hoechst 33342 (HOE), 8 µM, CDKi applied at their respective IC50 concentrations, % as strongly as LY, read-out: Inhibition of HOE efflux relative to LY
Experimental: (§4) To investigate the inhibitory activity of CDKi on ABCB1, the intracellular accumulation of HOE, a fluorescent ABCB1 substrate, was examined in both MDCKII-ABCB1 and MDCKII parent cell lines in the presence and absence of the tested compounds. The reduction in fluorescence intensity in ABCB1-transduced cells indicates the efflux activity of the ABCB1 transporter, its inhibition increases HOE accumulation and thus the intracellular fluorescence.
(§5) The assay was conducted as previously described and optimized for application in ABCB1-expressing cells. Briefly, MDCKII-ABCB1 and MDCKII parent cells were seeded at 5×10^4 cells per well on a 96-well culture plate and used for accumulation experiments after 24 h cultivation. The medium was removed and cells were washed twice with prewarmed phosphate buffered saline (PBS) at pH 7.4.

ABCB1 [3] = biological target: T1, ABCB1; assay: ABCB1-ATPase inhibition assay (verapamil-stimulated), Sf9 membranes; format: biochemical; parameters: purchased Solvo Biotechnology (Szeged, Hungary); host or cells: Sf9 insect cell membranes; details: 140 nM to 300 µM
Experimental: as §3

ABCB1 transporter [4] = biological target: T2, ABCB1 transporter (Homo sapiens, UniProt P08183); assay: HOE (Hoechst 33342) accumulation in MDCKII-ABCB1 cells; format: cell-based; details: 8 µM HOE, end-point fluorescence at 30 min, 50% of each compound's own maximum inhibitory activity, read-out: IC50, inhibition of ABCB1-mediated efflux of HOE
T2 construct: expressed in transfected cells; host or cells: MDCKII (canine kidney) cells transduced with human ABCB1, from Prof; Piet Borst and Dr. Alfred Schinkel (The Netherlands Cancer Institute)
T2 sequence (P08183 whole entry): as above
Experimental: as §4, §5

ABCG2 = tested on: ABCG2; parameters: method as in PMID 22173067, PMID 24116053; details: in vitro and in situ; cited from earlier work
ABCB1 transporter [5] = biological target: T2, ABCB1 transporter; assay: DNR accumulation in MDCKII-ABCB1 cells (flow cytometry), normalized to parental MDCKII; format: cell-based; details: 20 µM CDKi, 2 µM DNR
Experimental: Briefly, MDCKII-ABCB1 and MDCKII parent cells were seeded at 1.5×10^5 cells per well on a 12-well plate 24 h before the experiment. The medium was removed and the cells were washed with prewarmed PBS. The cells were then preincubated in Opti-MEM, with or without CDKi or LY at 37°C in 5% CO2 for 30 min. […] Accumulation was stopped by cooling the samples on ice, removing the medium and washing twice with ice-cold PBS. The cells were then detached from the plates with 10× trypsin-EDTA, resuspended in PBS with 2% FBS and transferred to Eppendorf tubes, which were placed on ice until analysis. […] The median fluorescence (MF) intensity of 10,000 measured cells was used to compare the fluorescence resulting from each of the treatments. […] The MF intensity of untreated cells was subtracted from fluorescence values obtained for all the measured samples.
To quantify the inhibitory effect of each tested compound on the ABCB1 transporter in the MDCKII-ABCB1 cell line, the ratio between the MF intensity with or without inhibitor was calculated and normalized to the effect in the parental MDCKII cell line according to the following equation [30]: [drawing 1]

MDCKII-ABCB1 cells = assay: XTT cytotoxicity, CDKi + DNR combination (Chou-Talalay); format: cell-based; details: MDCKII-ABCB1, 72 h
Experimental: as §1, §2

[6] = DNR combined with Olomoucine II, ratio 1∶20.5
[7] = DNR combined with Roscovitine, ratio 1∶47.0
[8] = DNR combined with Olomoucine II, ratio 1∶6.3
[9] = DNR combined with Purvalanol A, ratio 1∶17.7
[10] = DNR combined with Roscovitine, ratio 1∶17.0
[11] = DNR combined with Olomoucine II, ratio 1∶9.2
[12] = DNR combined with Purvalanol A, ratio 1∶11.7
[13] = DNR combined with Roscovitine, ratio 1∶12.3
[14] = CDKi combined with DNR at constant ratio

Compound: COc1cccc2c1C(=O)c1c(O)c3c(c(O)c1C2=O)C[C@@](O)(C(C)=O)C[C@@H]3O[C@H]1C[C@H](N)[C@H](O)[C@H](C)O1 [DNR, daunorubicin]
DRI at Fa 0.75, drug I (DNR) (HepG2 cells; [6]): 2.55±0.03
DRI at Fa 0.9, drug I (DNR) (HepG2 cells; [6]): 4.68±0.09
DRI at Fa 0.9, drug I (DNR) (HepG2 cells; DNR combined with Purvalanol A, ratio 1∶43.0): 4.05±0.08
DRI at Fa 0.75, drug I (DNR) (HepG2 cells; [7]): 2.72±0.02
DRI at Fa 0.9, drug I (DNR) (HepG2 cells; [7]): 5.02±0.03
DRI at Fa 0.5, drug I (DNR) (HCT-8 cells; [8]): 3.11±0.13
DRI at Fa 0.75, drug I (DNR) (HCT-8 cells; [8]): 4.14 ±0.08
DRI at Fa 0.9, drug I (DNR) (HCT-8 cells; [8]): 5.45±0.02
DRI at Fa 0.75, drug I (DNR) (HCT-8 cells; [9]): 3.12±0.03
DRI at Fa 0.9, drug I (DNR) (HCT-8 cells; [9]): 4.36±0.13
DRI at Fa 0.5, drug I (DNR) (HCT-8 cells; [10]): 2.63±0.02
DRI at Fa 0.75, drug I (DNR) (HCT-8 cells; [10]): 3.96±0.05
DRI at Fa 0.9, drug I (DNR) (HCT-8 cells; [10]): 5.96±0.17
DRI at Fa 0.5, drug I (DNR) (MDCKII parent cells; [11]): 2.38±0.08
DRI at Fa 0.75, drug I (DNR) (MDCKII parent cells; [11]): 3.07±0.06
DRI at Fa 0.9, drug I (DNR) (MDCKII parent cells; [11]): 3.96±0.03
DRI at Fa 0.5, drug I (DNR) (MDCKII parent cells; [12]): 2.25±0.03
DRI at Fa 0.75, drug I (DNR) (MDCKII parent cells; [12]): 2.84±0.05
DRI at Fa 0.9, drug I (DNR) (MDCKII parent cells; [12]): 3.60±0.09
DRI at Fa 0.75, drug I (DNR) (MDCKII parent cells; [13]): 2.74±0.06
DRI at Fa 0.9, drug I (DNR) (MDCKII parent cells; [13]): 3.57±0.09

Compound: CN1CC[C@H](c2c(O)cc(O)c3c(=O)cc(-c4ccccc4Cl)oc23)[C@H](O)C1 [flavopiridol]
ABCB1 substrate classification (ABCB1 [1]): non-substrates of ABCB1
inhibition at 30 min (ABCB1 [2]): 31%
Effect on verapamil-stimulated vanadate-sensitive ATPase activity of ABCB1 (ABCB1 [3]): only slightly reduced it at the highest tested concentration
IC50 (ABCB1 transporter [4]): 16.9 µM

ABCB1 substrate classification (ABCB1 [1]): ABCB1 substrate and inhibitor
inhibition at 30 min (ABCB1 [2]): 48%
ABCB1 inhibition (DNR efflux) (ABCB1 transporter [5]): significant (P<0.05) ABCB1 inhibition
IC50 (ABCB1 transporter [4]): 6.4 µM
Compound: CC[C@H](CO)Nc1nc(NCc2ccccc2O)c2ncn(C(C)C)c2n1 [olomoucine II]
Effect on baseline vanadate-sensitive ATPase activity of ABCB1 (ABCB1 [1]; activation assay, 140 nM to 300 µM): increased the baseline vanadate-sensitive ATPase activity
Fa values for synergism of combination with DNR (HepG2 cells; constant ratio): 0.75
DRI at Fa 0.75, drug II (CDKi) (HepG2 cells; [14]): 2.08±0.03
DRI at Fa 0.9, drug II (CDKi) (HepG2 cells; [14]): 2.38±0.04
ABCG2 inhibition (ABCG2): can inhibit ABCG2 in vitro and in situ
Fa at which combination with DNR shows synergistic cytotoxic effects (HCT-8 cells; constant ratio): > 0.1
DRI at Fa 0.5, drug II (CDKi) (HCT-8 cells; [14]): 3.04±0.13
DRI at Fa 0.75, drug II (CDKi) (HCT-8 cells; [14]): 2.98±0.06
DRI at Fa 0.9, drug II (CDKi) (HCT-8 cells; [14]): 2.92±0.05
Combination index (CI) category, combination with DNR (MDCKII-ABCB1 cells; constant ratio): synergistic category of drug combination effects across almost the whole fraction of cells affected (Fa) range
DRI at Fa 0.5, drug II (CDKi) (MDCKII-ABCB1 cells; [14]): 2.83±0.27
DRI at Fa 0.75, drug II (CDKi) (MDCKII-ABCB1 cells; [14]): 2.84±0.19
DRI at Fa 0.9, drug II (CDKi) (MDCKII-ABCB1 cells; [14]): 2.86±0.10
DRI at Fa 0.5, drug II (CDKi) (MDCKII parent cells; [14]): 2.51±0.08
DRI at Fa 0.75, drug II (CDKi) (MDCKII parent cells; [14]): 2.63±0.05
DRI at Fa 0.9, drug II (CDKi) (MDCKII parent cells; [14]): 2.75±0.02
Fa above which combination with DNR is synergistic (MDCKII parent cells; constant ratio): exceeded 0.4
Effect on verapamil-stimulated vanadate-sensitive ATPase activity of ABCB1 (ABCB1 [3]): considerably and dose-dependently reduced
